Test results from paper PMC10343355, “Finding the Right Solvent: A Novel Screening Protocol for Identifying Environmentally Friendly and Cost-Effective Options for Benzenesulfonamide” (Molecules, 2023).

Assay: Shake-flask solubility of BSA in neat solvents and aqueous binary mixtures, spectrophotometric determination at 264 nm
Assay type: physicochemical
Conditions: for log(x1)exp: mole fraction solubility
Experimental: In order to determine the solubility of BSA in the studied solvents, excess amounts of it were added to test tubes pre-filled with a particular solvent or a binary mixture of this solvent and water in different molar proportions. Saturated solutions prepared in this manner were placed in an ES-20/60 Orbital Shaker Incubator from Biosan (Riga, Latvia) and incubated for 24 h at different temperatures. Four temperatures were used in the range from 25 °C to 40 °C with 5 °C intervals. The temperature in the incubator was adjusted with 0.1-degree accuracy with a 0.5-degree variance in a 24 h cycle. Simultaneously, the samples were mixed at 60 rev/min. In the next stage, the filtration of the samples took place, utilizing syringes equipped with PTFE filters with 0.22 µm pore size. Since the temperature difference between the measured solutions and used instruments can possibly lead to precipitation, all of the used test tubes, pipette tips, syringes, and filters were initially heated. This was carried out by placing them in the same incubator as the samples and heating them at exactly the same temperature prior to the handling of the samples. This was particularly important in the case of elevated temperatures, as the difference between, e.g., 40 °C and room temperature is quite extensive. Then, small amounts of the obtained filtrate were diluted in different test tubes containing methanol and measured spectrophotometrically. In order to determine the mole fractions of BSA in the samples, their density was also measured by weighing a 1 mL volume of each of the solutions, taken by using an Eppendorf Reference 2 pipette (Hamburg, Germany), in 10 mL volumetric flasks. The systematic error of the pipette was 6 μL. The precision of the RADWAG (Radom, Poland) AS 110.R2 PLUS analytical balance that was used in this study was 0.1 mg. The A360 spectrophotometer from AOE Instruments (Shanghai, China) was used for solubility determination. The spectra were recorded in the 190 nm to 400 nm wavelength range with a 1 nm resolution. Methanol was used for both the dilution of the samples and the initial calibration of the spectrophotometer. The analytical wavelength was determined to be 264 nm, and the absorbance of the samples at this wavelength was used for the determination of the BSA concentration in the samples and the subsequent calculation of its mole fractions. Three separate measurements were used, and the resulting values were averaged. The calibration curve for BSA was generated by preparing successive dilutions of an initial stock solution and performing spectrophotometric measurements of the resulting solutions with decreasing concentrations. The molar concentrations of measured solutions were 3.19 × 10^−3, 2.84 × 10^−3, 2.46 × 10^−3, 2.13 × 10^−3, 1.88 × 10^−3, 1.60 × 10^−3, 1.26 × 10^−3, 9.53 × 10^−4, 5.70 × 10^−4, and 4.80 × 10^−4 M). The relationship between the absorbance values at 264 nm and the solution concentration was described by the linear equation A = 470.86 × C + 0.0093 (A—absorbance; C—molar concentration), with a determination coefficient R^2 equal 0.9996, denoting high linearity.

Compound: NS(=O)(=O)c1ccccc1 [BSA, Benzenesulfonamide]
- solubility, X^exp × 10^3 (4FM+water, x2*(4FM)=0.2, 298.15 K): 23.42 ± 0.86 mole fraction × 10^3
- solubility, X^exp × 10^3 (4FM+water, x2*(4FM)=0.2, 303.15 K): 32.61 ± 1.65 mole fraction × 10^3
- solubility, X^exp × 10^3 (4FM+water, x2*(4FM)=0.2, 308.15 K): 48.14 ± 1.59 mole fraction × 10^3
- solubility, X^exp × 10^3 (4FM+water, x2*(4FM)=0.2, 313.15 K): 69.19 ± 2.56 mole fraction × 10^3
- solubility, X^exp × 10^3 (4FM+water, x2*(4FM)=0.4, 298.15 K): 45.67 ± 0.33 mole fraction × 10^3
- solubility, X^exp × 10^3 (4FM+water, x2*(4FM)=0.4, 303.15 K): 68.93 ± 1.12 mole fraction × 10^3
- solubility, X^exp × 10^3 (4FM+water, x2*(4FM)=0.4, 308.15 K): 102.78 ± 3.56 mole fraction × 10^3
- solubility, X^exp × 10^3 (4FM+water, x2*(4FM)=0.4, 313.15 K): 142.57 ± 6.01 mole fraction × 10^3
- solubility, X^exp × 10^3 (4FM+water, x2*(4FM)=0.6, 298.15 K): 61.48 ± 0.85 mole fraction × 10^3
- solubility, X^exp × 10^3 (4FM+water, x2*(4FM)=0.6, 303.15 K): 101.16 ± 0.91 mole fraction × 10^3
- solubility, X^exp × 10^3 (4FM+water, x2*(4FM)=0.6, 308.15 K): 146.31 ± 6.19 mole fraction × 10^3
- solubility, X^exp × 10^3 (4FM+water, x2*(4FM)=0.6, 313.15 K): 196.38 ± 7.85 mole fraction × 10^3
- solubility, X^exp × 10^3 (4FM+water, x2*(4FM)=0.8, 298.15 K): 68.53 ± 0.63 mole fraction × 10^3
- solubility, X^exp × 10^3 (4FM+water, x2*(4FM)=0.8, 303.15 K): 118.09 ± 6.45 mole fraction × 10^3
- solubility, X^exp × 10^3 (4FM+water, x2*(4FM)=0.8, 308.15 K): 178.71 ± 6.67 mole fraction × 10^3
- solubility, X^exp × 10^3 (4FM+water, x2*(4FM)=0.8, 313.15 K): 242.26 ± 2.09 mole fraction × 10^3
- solubility, X^exp × 10^3 (DMF+water, x2*(DMF)=0.2, 298.15 K): 42.18 ± 0.83 mole fraction × 10^3
- solubility, X^exp × 10^3 (DMF+water, x2*(DMF)=0.2, 303.15 K): 46.69 ± 1.75 mole fraction × 10^3
- solubility, X^exp × 10^3 (DMF+water, x2*(DMF)=0.2, 308.15 K): 54.78 ± 1.76 mole fraction × 10^3
- solubility, X^exp × 10^3 (DMF+water, x2*(DMF)=0.2, 313.15 K): 63.21 ± 1.40 mole fraction × 10^3
- solubility, X^exp × 10^3 (DMF+water, x2*(DMF)=0.4, 298.15 K): 161.16 ± 3.97 mole fraction × 10^3
- solubility, X^exp × 10^3 (DMF+water, x2*(DMF)=0.4, 303.15 K): 179.12 ± 10.87 mole fraction × 10^3
- solubility, X^exp × 10^3 (DMF+water, x2*(DMF)=0.4, 308.15 K): 202.07 ± 2.93 mole fraction × 10^3
- solubility, X^exp × 10^3 (DMF+water, x2*(DMF)=0.4, 313.15 K): 233.72 ± 14.10 mole fraction × 10^3
- solubility, X^exp × 10^3 (DMF+water, x2*(DMF)=0.6, 298.15 K): 231.63 ± 6.50 mole fraction × 10^3
- solubility, X^exp × 10^3 (DMF+water, x2*(DMF)=0.6, 303.15 K): 253.07 ± 9.75 mole fraction × 10^3
- solubility, X^exp × 10^3 (DMF+water, x2*(DMF)=0.6, 308.15 K): 281.23 ± 1.05 mole fraction × 10^3
- solubility, X^exp × 10^3 (DMF+water, x2*(DMF)=0.6, 313.15 K): 319.28 ± 11.90 mole fraction × 10^3
- solubility, X^exp × 10^3 (DMF+water, x2*(DMF)=0.8, 298.15 K): 268.17 ± 4.27 mole fraction × 10^3
- solubility, X^exp × 10^3 (DMF+water, x2*(DMF)=0.8, 303.15 K): 286.69 ± 8.71 mole fraction × 10^3
- solubility, X^exp × 10^3 (DMF+water, x2*(DMF)=0.8, 308.15 K): 317.90 ± 8.49 mole fraction × 10^3
- solubility, X^exp × 10^3 (DMF+water, x2*(DMF)=0.8, 313.15 K): 356.68 ± 8.53 mole fraction × 10^3
- solubility, X^exp × 10^3 (DMSO+water, x2*(DMSO)=0.2, 298.15 K): 35.84 ± 1.56 mole fraction × 10^3
- solubility, X^exp × 10^3 (DMSO+water, x2*(DMSO)=0.2, 303.15 K): 40.39 ± 0.41 mole fraction × 10^3
- solubility, X^exp × 10^3 (DMSO+water, x2*(DMSO)=0.2, 308.15 K): 45.37 ± 0.84 mole fraction × 10^3
- solubility, X^exp × 10^3 (DMSO+water, x2*(DMSO)=0.2, 313.15 K): 50.66 ± 1.03 mole fraction × 10^3
- solubility, X^exp × 10^3 (DMSO+water, x2*(DMSO)=0.4, 298.15 K): 136.28 ± 5.21 mole fraction × 10^3
- solubility, X^exp × 10^3 (DMSO+water, x2*(DMSO)=0.4, 303.15 K): 153.75 ± 0.89 mole fraction × 10^3
- solubility, X^exp × 10^3 (DMSO+water, x2*(DMSO)=0.4, 308.15 K): 175.06 ± 5.16 mole fraction × 10^3
- solubility, X^exp × 10^3 (DMSO+water, x2*(DMSO)=0.4, 313.15 K): 198.55 ± 12.9 mole fraction × 10^3
- solubility, X^exp × 10^3 (DMSO+water, x2*(DMSO)=0.6, 298.15 K): 257.01 ± 5.42 mole fraction × 10^3
- solubility, X^exp × 10^3 (DMSO+water, x2*(DMSO)=0.6, 303.15 K): 279.84 ± 7.39 mole fraction × 10^3
- solubility, X^exp × 10^3 (DMSO+water, x2*(DMSO)=0.6, 308.15 K): 307.25 ± 8.78 mole fraction × 10^3
- solubility, X^exp × 10^3 (DMSO+water, x2*(DMSO)=0.6, 313.15 K): 335.53 ± 2.01 mole fraction × 10^3
- solubility, X^exp × 10^3 (DMSO+water, x2*(DMSO)=0.8, 298.15 K): 301.83 ± 4.01 mole fraction × 10^3
- solubility, X^exp × 10^3 (DMSO+water, x2*(DMSO)=0.8, 303.15 K): 324.42 ± 10.85 mole fraction × 10^3
- solubility, X^exp × 10^3 (DMSO+water, x2*(DMSO)=0.8, 308.15 K): 352.69 ± 7.04 mole fraction × 10^3
- solubility, X^exp × 10^3 (DMSO+water, x2*(DMSO)=0.8, 313.15 K): 381.96 ± 8.16 mole fraction × 10^3
- solubility, X^exp × 10^3 (DMSO+water, x2*=0.0 (neat water), 298.15 K): 0.56 ± 0.03 mole fraction × 10^3
- solubility, X^exp × 10^3 (DMSO+water, x2*=0.0 (neat water), 303.15 K): 0.83 ± 0.01 mole fraction × 10^3
- solubility, X^exp × 10^3 (DMSO+water, x2*=0.0 (neat water), 308.15 K): 1.17 ± 0.04 mole fraction × 10^3
- solubility, X^exp × 10^3 (DMSO+water, x2*=0.0 (neat water), 313.15 K): 1.53 ± 0.03 mole fraction × 10^3
- log(x1)exp (solvent 4-Formylmorpholine, T 25.00 °C): -1.16
- log(x1)exp (solvent 4-Formylmorpholine, T 30.00 °C): -0.88
- log(x1)exp (solvent 4-Formylmorpholine, T 35.00 °C): -0.70
- log(x1)exp (solvent 4-Formylmorpholine, T 40.00 °C): -0.55
- log(x1)exp (solvent DMF, T 25.00 °C): -0.54
- log(x1)exp (solvent DMF, T 30.00 °C): -0.51
- log(x1)exp (solvent DMF, T 35.00 °C): -0.47
- log(x1)exp (solvent DMF, T 40.00 °C): -0.42
- log(x1)exp (solvent DMSO, T 25.00 °C): -0.50
- log(x1)exp (solvent DMSO, T 30.00 °C): -0.47
- log(x1)exp (solvent DMSO, T 35.00 °C): -0.43
- log(x1)exp (solvent DMSO, T 40.00 °C): -0.40
- log(x1)exp (solvent water, T 25.00 °C): -3.25
- log(x1)exp (solvent water, T 30.00 °C): -3.08
- log(x1)exp (solvent water, T 35.00 °C): -2.93
- log(x1)exp (solvent water, T 40.00 °C): -2.82
- solubility, X^exp × 10^3 (x2*=1.0 (neat 4FM), 298.15 K): 69.45 ± 0.49 mole fraction × 10^3
- solubility, X^exp × 10^3 (x2*=1.0 (neat 4FM), 303.15 K): 132.21 ± 4.61 mole fraction × 10^3
- solubility, X^exp × 10^3 (x2*=1.0 (neat 4FM), 308.15 K): 200.82 ± 7.43 mole fraction × 10^3
- solubility, X^exp × 10^3 (x2*=1.0 (neat 4FM), 313.15 K): 279.66 ± 2.42 mole fraction × 10^3
- solubility, X^exp × 10^3 (x2*=1.0 (neat DMF), 298.15 K): 288.65 ± 1.99 mole fraction × 10^3
- solubility, X^exp × 10^3 (x2*=1.0 (neat DMF), 303.15 K): 308.50 ± 5.81 mole fraction × 10^3
- solubility, X^exp × 10^3 (x2*=1.0 (neat DMF), 308.15 K): 336.89 ± 13.52 mole fraction × 10^3
- solubility, X^exp × 10^3 (x2*=1.0 (neat DMF), 313.15 K): 378.60 ± 8.94 mole fraction × 10^3
- solubility, X^exp × 10^3 (x2*=1.0 (neat DMSO), 298.15 K): 319.77 ± 2.83 mole fraction × 10^3
- solubility, X^exp × 10^3 (x2*=1.0 (neat DMSO), 303.15 K): 342.67 ± 5.19 mole fraction × 10^3
- solubility, X^exp × 10^3 (x2*=1.0 (neat DMSO), 308.15 K): 369.38 ± 9.57 mole fraction × 10^3
- solubility, X^exp × 10^3 (x2*=1.0 (neat DMSO), 313.15 K): 402.31 ± 9.04 mole fraction × 10^3
